Key:
C57BL/6 mouse = assay: Model of regrowth of the body hair in the C57BL/6 mouse; format: in vivo; settings: for Regrowth of the body hair versus ethanol ΔAUC (D 1-D 22): topical 50 μl
Source text: The C57BU6 mice are each a particularly useful model for the study of hair growth:
In C57BU6 mice, the fur is black. In the trunk of the animals, the melanocytes are present solely in the hair follicles and the production of pigment is strictly correlated with the anagen phase of the hair cycle (Slominski A. and Paus R., J. Invest. Dermatol., 10, 90S-97S, 1993).
In young mice, the hair cycles are not in phase throughout the body but are synchronized in a region according to a rostro-caudal wave (Hale P. A. and Ebling F. J., J. Exp. Zool., 191, 49-62). At 42 days, the hair follicles of the dorsal region enter the telogen phase (Chase H. B. Physiol. Rev., 34, 113-126, 195).
Thus, after clipping and shaving the backs of C57BU6 mice aged 42 days, the regrowth can be easily visualized before the hair shafts appear at the surface by the grey appearance which the skin assumes. The delay in appearance of the grey color of the skin and the delay in appearance of the hair shafts after clipping and shaving represent criteria which give an account of the rate of entry of the hair follicle into the anagen phase and the rate of growth of the hair shaft. These two criteria will thus be used to evaluate the activity on the hair growth of the compounds tested.
The male C57BU6 mice are aged 42 days at the beginning of the study. The groups are formed of 10 animals.
On day D0, the backs of the animals are clipped with Minicut clippers equipped with a shoe (retention of 4 mm of hair shaft) and shaved with a Braun razor.
The study is carried out over 21 days.
The hair growth is evaluated according to the criteria defined in:
Minoxidil in solution in ethanol at 2.5% is used as positive control of the regrowth of the body hair.
Travoprost in its isopropyl ester form is used in solution in ethanol at 0.01%.
The travoprost, the minoxidil and the carrier are administered by the topical route using a pipette at the rate of 50 μl per application.
The minoxidil and the carrier are administered in repeated daily fashion from day 1 to day 21 of the study. Two different treatments are carried out with the travoprost: a first group receiving a single administration on day 1 of the study and a second group receiving five repeated daily and consecutive administrations from day 1 to day 5 of the study.
The following calculations are carried out: • Mean±SEM of the scores per day for each group treated. • Areas under the curve (AUC) of the regrowth scores per animal from D1 to D22. • Mean±SEM of the AUC values per treatment group. • Percentage of increase in the AUC values for each treated group versus the carrier group.
The AUC is obtained by summing the areas of the rectangles from the first and the final day of the study. The different treatment groups are compared with the carrier group with regard to this parameter by means of a Student's t-test.

human hair follicles = assay: Human hair follicles kept alive: elongation of the hair shaft in organ culture; format: cell-based; settings: 1 μM in DMSO; for Elongation at D 7: cumulative from D0, mean
Procedure: Human hair follicles are dissected while keeping the bulb and the connective and epithelial sheaths intact to be cultured in an appropriate medium which makes it possible to provide for the growth of the follicle ex vivo while keeping its structure intact in the growth or anagen phase (Stenn, Ann. N.Y. Acad. Sci., 1991, Dec. 26, 642, xi-xiii). The growth of the hair follicles in vitro is then evaluated using the measurement of elongation of the […].
Human hair follicles of “terminal” type are isolated from a skin sample resulting from facial surgery (lifting). For this, the skin is cut into pieces of approximately 5×5 mm. The hypodermis is separated from the dermis using a scalpel blade. The hair follicles are isolated from the hypodermal part under a binocular magnifier using fine forceps. Only the hair follicles in the growth phase with a bulb and intact connective and epithelial sheaths are retained for study.
The hair follicles thus isolated are incubated at 37° C. in a humid atmosphere (5% CO2 and 95% air) and are cultured individually in suspension for 7 days in William's E medium supplemented with 2 mM of L-glutamine, 10 μg/ml of insulin, 10 ng/ml of hydrocortisone and 1% of antibiotics/antimitotics. The culture medium is replaced every 2 or 3 days.
The travoprost in its acid form is taken up in DMSO at a concentration of 10^−2M and stored at −20° C. until used.
The surviving hair follicles are treated with the DMSO carrier at a final concentration of 0.1% or with the travoprost acid at a concentration of 1 μM in DMSO (final DMSO concentration also at 0.1%). For each condition, 22 hair follicles are treated individually subsequent to culturing at D0. In the case of a repeated treatment, the travoprost acid at 1 μM in DMSO is replaced at the time of the change in medium, this being done for 7 days. In the case of a single treatment, the travoprost acid at 1 μM DMSO is added to the culture medium just once in the culturing.
The growth of the hair follicles is determined by the measurement of the elongation of the hair shaft from day D0 to day D7. The elongation of the hair shaft is analyzed using Tina image analysis software. The measurements are carried out on hair follicles isolated at days D0, D3, D5 and D7.
The mean post-D0 length (by definition: the mean of the lengths measured on the days following D0) is considered:
The mean post-D0 length is a function: • of the initial length at D0 • of the treatment group • of other factors related to technological or biological variability.
In this study example, 15 hair follicles (all groups mixed up) out of 66 cultured were discarded.
It is assumed that the mean post-D0 length is the sum of four components:
Some measurements, referred to as “aberrant” measurements, can have a highly disruptive effect on the estimation of the effects of the model. A robust ANOVA method is applied with regard to these measurements: “LTS” (Least Trimmed Squares). The principle of the LTS method is as follows: • 1. A definition is made at the start of a fixed proportion p0 of observations which it is desired to ignore in the estimation of the effects (p0=10%) among all the observations present independently of the treatment (observations of the entire study). The corresponding number of observations is denoted n0. • 2. n0 points are selected at random and excluded from the estimation process. • 3. The parameters (effects) of the model are estimated. • 4. Among the observations, excluded and non-excluded, the n0 observations which are the least well predicted by the model are identified. • 5. The n0 least well predicted observations found in stage 4, are, in their turn, excluded from the estimation process. • 6. Stage 3 (estimation) is reverted to until the observations excluded in stage 5 remain unchanged (“convergence”).
The LTS process is repeated a large number of times (200) starting from different random selections. […]

[1] = single treatment at the time of culturing

## Nc1cc(N2CCCCC2)nc(N)[n+]1[O-] [Minoxidil, 2,4-diamino-6-piperidinopyrimidine 3-oxide]
C57BL/6 mouse; 2.5% in ethanol, repeated daily administrations (21 days)
  Regrowth of the body hair versus ethanol ΔAUC (D 1-D 22): +34%
C57BL/6 mouse; 2.5% in ethanol, repeated daily administrations (21 days), listed as minoxidil
  Regrowth of the body hair versus ethanol ΔAUC (D 1-D 22): 30%
C57BL/6 mouse; 2.5%, repeated daily administration for 21 days
  regrowth of the body hair in comparison with the carrier: accelerates the regrowth of the body hair

## CC(C)OC(=O)CCC/C=C\C[C@@H]1[C@@H](/C=C/[C@@H](O)COc2cccc(C(F)(F)F)c2)[C@H](O)C[C@@H]1O [Travoprost, propane-2-yl (Z)-7-[(1R,2R,3R,5S)-3,5-dihydroxy-2-[(1E,3R)-3-hydroxy-4-[3-(trifluoromethyl)phenoxy]but-1-enyl]cyclopentyl]hept-5-enoate]
Human hair follicles; repeated treatment during 7 days
  AUC (D 0-D 7) of hair shaft elongation: 5.82
Human hair follicles; repeated treatment during 7 days of culturing
  Elongation at D 7: 1.23 mm
Human hair follicles; [1]
  AUC (D 0-D 7) of hair shaft elongation: 5.83
  Elongation at D 7: 1.27 mm
C57BL/6 mouse; 0.01% in ethanol, repeated daily administrations (5 days)
  Regrowth of the body hair versus ethanol ΔAUC (D 1-D 22): +7%
C57BL/6 mouse; 0.01% in ethanol, single administration on day 1
  Regrowth of the body hair versus ethanol ΔAUC (D 1-D 22): +31%
C57BL/6 mouse; 0.01% in ethanol, single administration on day 1, listed as travoprost
  Regrowth of the body hair versus ethanol ΔAUC (D 1-D 22): 31%
C57BL/6 mouse; 0.01%, repeated daily and consecutive administrations for 5 days
  regrowth of the body hair in comparison with the carrier: do not accelerate the regrowth of the body hairs
C57BL/6 mouse; 0.01%, single administration
  regrowth of the body hair in comparison with the carrier: significantly accelerates the regrowth of the body hair

## O=C(O)CCC/C=C\C[C@@H]1[C@@H](/C=C/[C@@H](O)COc2cccc(C(F)(F)F)c2)[C@H](O)C[C@@H]1O [travoprost acid]
Human hair follicles; single treatment
  elongation in the hair shaft compared with carrier DMSO: greater than that obtained with the carrier DMSO
  time at which the effect on elongation appears: from the third day of treatment

From patent US8980948B2, “Topical application of travoprost for combating hair loss” (Galderma Research & Development, priority 2007, dated 2015)
